Legend:
[1] = Lap shear test of cured PMA resin on primed mica; conditions: first value of each pair (mica)
Procedure: (§1) 1 wt % primer solution was spread on mica, glass, tooth enamel, or a silicon wafer and incubated for 1 min, followed by thorough washing with methanol (for MDP, P1-P3) or DMSO (for P4) and drying by flowing nitrogen. The surfaces were exposed to a basic aqueous solution (pH 9, using sodium hydroxide), incubated for 1 min, and drying by flowing nitrogen (see FIG. 52). The methacrylic comonomer blend (Bis-GMA, TEGDMA, DMAEMA and CQ) was packed in a gelatin capsule (size #4, 5-mm diameter, Torpac Inc.) and placed up on top of the primer-treated substrates. The comonomer blend was cured (or crosslinked) for 1 min using a portable dental curing lamp (Foshan Liang Ya Dental Co., LY-A180, 420-480 nm, 1200-2000 mW·cm^−2) (see FIG. 53). Uniaxial compression was applied to the capsule at a rate of 0.05 inch min^−1 using a materials testing system (MTS Bionix 200) until the capsules are separated from the substrate. The lap shear fracture measurements were repeated at least 10 times for each condition.

[2] = Lap shear test of cured PMA resin on primed silica/glass; conditions: second value of each pair (silica)
Procedure: as §1

[3] = Lap shear test of cured PMA resin on primed tooth enamel; design: species or system human
Procedure: as §1

[4] = Cyclic voltammetry of catechol oxidation; format: physicochemical; conditions: 5 mM in DI water
Procedure: (§2) Cyclic voltammetry was performed on a Versastat 3 potentiostat from Ametek Co. These analyses were carried out using a three-electrode cell: a Pt wire as the counter electrode, an Ag/AgCl reference electrode, and a Carbon paste electrode (CPE) served as the working electrode. CPE is the best choice for adhesive materials because of its ability to be completely polished before each experiment. Catechol auto-oxidation was avoided by performing all electrochemical experiments with degassed deionized water in a glove bag under argon. Scan rate 1 mV s-1 was used for all experiments. CV of 5 mM synthesized polymers and 5 mM methyl catechol, a simple catechol-containing compound, were compared. Oxidation of Catechol carrying molecules occurred at more positive potentials than methyl catechol, indicating the unique structure of the dispersions provide shielding effects that stabilized catechol groups (FIG. 3).
Cyclic voltammetry was performed on a Versastat 3 potentiostat from Ametek Co. (Berwyn, PA). These analyses were carried out using a three-electrode cell: a Pt wire as the counter electrode, an Ag/AgCl reference electrode, and a Carbon paste electrode (CPE) served as the working electrode. CPE is the best choice for adhesive materials because of its ability to be completely polished before each experiment.
as §2, with “s^−1” for “s-1”, “molecules” for “polymers”, “groups. Z-Cat-Ben with an oxidation peak at 840 mV is more resistant to oxidation than the other species” for “groups”, “42).” for “3).”

[5] = Surface forces apparatus (SFA) cohesion/adhesion between thin films on mica; format: physicochemical
Procedure: The interaction between two surfaces can be measured with nano-Newton level force resolution and Angstrom level resolution in the separation distance between the surfaces. The details of the SFA techniques have been describe in a work by Israelachvili et al. In a typical SFA experiment (FIG. 2C), the distance and the force between the surfaces are measured simultaneously. To begin with, the instrument is calibrated at large separation distances. When the two surfaces are not interacting, i.e., they are separated by large distances, the change in the separation between them is equal to the distance through which the motor moves the lower surface towards or away from the upper surface (or the upper surface driven by the piezo-tube moves towards the lower surface). However, once the surfaces are close enough to start interacting with each other, the measured separation distance deviates from the expected separation calibrated when there is no force between the surfaces. This deviation is due to the deflection of the double cantilever spring and is directly proportional to the force acting normally between the two opposing surfaces. Thus the normal force can be measured using Hooke's law, F=kΔx, where k is the spring constant of the double-cantilever spring and Δx=Dactual−Dapplied is the deflection of the spring, determined by taking the difference between the applied change in position of one of the surfaces Dapplied and the actual change in distance measured between the surfaces Dactual. The actual distance, Dactual, between the surfaces can be measured by multiple beam interferometry (MBI) and will be discussed below.
The distance between the surfaces, shape of the interface and the refractive index of the media between the surfaces can be accurately determined by Multiple Beam Interferometry (MBI) technique. In this technique, white light is directed through two back-silvered mica surfaces (or uniform and same thickness). As a white light passes between the mica surfaces, it undergoes interference due to the optical trap set up by the back silver on each of these surfaces giving rise to discrete wavelengths of light (FIG. 2C). These wavelengths of light are resolved in a spectrometer creating interference fringes known as ‘fringes of equal chromatic order’ (FECO). Since mica is birefringent, the FECO appears as doublets and termed as β and γ. Alternate fringes are termed as odd and even fringes with odd fringes having nodes at the center and even fringes with anti-nodes in the center. The FECO is then recorded on a camera and analyzed to determine the distance between the surfaces using the following equations: […]
The adhesion/cohesion energy of the synthetic zwitterionic molecules was investigated in SFA (SurForce LLC, Santa Barbara, CA). Two molecularly smooth freshly cleaved back silvered mica surfaces glued on cylindrical silica discs of radius of curvature, R˜2 cm, were mounted in the SFA and 50 μL of a colloidal dispersion of the synthetic molecules in DI water were injected between the surfaces at different concentrations (C=0.5-5 mM) and the forces between the thin films of the molecules were measured by Multiple Beam Interferometry (MBI). The adhesion forces between Z-Cat-C10 molecules on various surfaces, e.g., silica and copper, were also measured by AFM (MFP-3D, Asylum research, Goleta, CA) in DI water and ambient conditions, respectively, at room temperature. AFM probes with a silicon dioxide particle (10, 5, and 1 μm, respectively) on a silicon nitride (SN) cantilever-0.6 N m^−1 were purchased from Novascan Technologies, Inc (Ames, IA). Cantilever spring constants were measured for each force run. Images of Z-Cat-C10 coating on silicon wafer and copper plates were visualized in an AFM. […]

[6] = Contact angle measurements on SAM-modified substrates; format: physicochemical; conditions: SAM-modified nano-grooved SiO2
Procedure: The nano-grooved SiO2 substrates passivated with Z-Cat-Ben or Z-Cat-Ben-F SAMs were prepared with the same procedure described above. For the reference substrate, the pre-cleaned and ultraviolet/ozone-treated (for 10 min) nano-grooved SiO2 substrate was passivated with n-decyltrichlorosilane (Gelest Inc.) in toluene solution (1% by volume) at 80° C. for 20 min in ambient air. Then, the substrate was subsequently sonicated in toluene and rinsed with additional toluene several times. Anhydrous chlorobenzene (50 μL) was used as a droplet dropping on the substrates. All contact angle images were taken at the direction perpendicular to nano-grooves in the substrates using Dataphysics OCA 15EC goniometer.

[7] = OFET characterization (saturation hole mobility)
Description: The OFETs were fabricated onto nano-grooved SiO2 substrates prepared by rubbing n^++Si (500 μm)/SiO2 (300 nm) substrate (International Wafer Services Co.) with a diamond lapping disc with particle sizes of 100 nm (Allied High Tech Products Inc.) as described in detail in the previous reports. The Ni (5 nm)/Au (50 nm) source and drain electrodes were patterned on the SiO2 dielectrics through a conventional photolithography process. For OFETs with Ni source and drain electrodes, an additional Ni (10 nm) layer was deposited on top of the pre-deposited Au electrodes. All metal electrodes were deposited by electron beam evaporation at 7×10^−7 Torr. Then, the substrates were sonicated in acetone and isopropanol for cleaning, and were kept in an oven at >100° C. for overnight. After ultraviolet/ozone treatment of pre-cleaned nano-grooved SiO2 substrates for 10 min, the substrates were passivated with the Z-Cat-Ben or Z-Cat-Ben-F SAM by dropping SAM water solution (5 mM) onto the substrates for ˜1 min. The substrates were subsequently rinsed with deionized water for ˜1 min, and were kept in a low vacuum for 10 min to remove residual water. The PCDTPT (1-Material Inc.) was then cast from a chlorobenzene solution (0.25 mg mL^−1) through the sandwich casting in a nitrogen-filled glove box. The devices were then cured at 200° C. for 1 min prior to measurements, and were tested using a probe station (Signatone Co.) in a nitrogen-filled glove box. Data were collected by a Keithley 4200 system.
The field-effect mobilities in the saturation regime were extracted using the following equation, IDS=(W/2L)Cμ(VGS−VT)^2 (7) where, W is the channel width, L is the channel length, C is the gate dielectric capacitance per unit area, μ is the carrier mobility in the saturation regime, IDS is the drain-source current, and VGS is the gate-source voltage. Channel width/length is 1000/200 μm for the devices used in this study. Transistor Characteristics of OFETs with Z-Cat-Ben and Z-Cat-Ben-F: Contact Angle Measurements: […]

[8] = SFA adhesion of cured PMA resin between primer-treated mica surfaces
Procedure: Atomically-smooth muscovite mica sheets were freshly cleaved (thickness of 2-5 μm) and attached on another large freshly cleaved mica backing sheet under a laminar flow hood and placed in a desiccator for clean storage. To ensure use of a fresh surface for each experiment, mica was peeled away from the backing sheet and glued on cylindrical disks using an epoxy glue (EPON 1004 F® from Exxon Chemicals). In each experiment, the mica surfaces were treated with one of the primer solutions, as described for the lap shear experiments, and then mounted in the SFA in a cross cylindrical geometry. In contrast to typical SFA experiments, which use an interferometric method to calculate the disk-disk separation distances and thus the interaction forces, in the SFA used here for adhesion testing, the disk separations were directly measured using semiconductor strain-gauged double cantilever springs (k=1000-10000 N/m)(see FIG. 67). After separating the surfaces, 100 […]1 of comonomer blend was injected between the two surfaces. Then, ˜600 mN of load was applied, followed by visible light curing for 1 min using the portable dental curing lamp (see FIG. 54G). Adhesion strength of cured polymer toward the mica was measured by detaching (unloading) two surfaces. All loading and unloading were performed using a coarse micrometer at the velocity of […]. The SFA measurements were repeated at least 5 times for each condition.

[9] = QCM-D adsorption of primers; format: physicochemical
Procedure: A ‘static cell’ (often called ‘Open Module’) QCM-D (Q-Sense, Biolin Scientific) was employed to quantitatively evaluate the adsorption of each primer onto SiO2 surface using a quartz sensor (QSX 303, Biolin Scientific). Changes in resonance frequency (ΔF) and dissipation (ΔD) of the SiO2 were recorded and used to measure the adsorbed mass and layer viscoelasticity, respectively, of the primer deposited on the sensor. In detail, pure solvent (100 μl) was dropped onto the sensor and equilibrated for ˜20-30 min. Then, 2 wt % primer solution (100 μl) was dropped onto the sensor (this is labeled “Solution Drop-in” in FIG. 51) and equilibrated until the frequency and dissipation signals stabilized. To remove unbound primers, the sensor was rinsed with solvents (this is labeled “Solvent Rinsing” in FIG. 51) and equilibrated until frequency and dissipation signals stabilized.
Mass loss of P3 and P4 during the rinsing was negligible compared to P2 which lost 60% of initial mass, indicating outstanding adsorption efficiency of catechol-containing primers on SiO2 surfaces even compared to mussel foot protein adsorption (˜30% loss of mfp-3s^3). The priming thickness of P4 estimated by QCM-D is ˜3.1 nm which agrees with the average height of AFM images (˜3.5 nm), assuming that QCM-D measures the average thickness of a uniform layer. The smaller average thickness of P4 (˜3.1 nm) compared to the molecular contour length (˜4.8 nm) may be attributed to the flexible alkyl spacer in P4. The possibility of a softer, more flexible layer with P4 is supported by a higher change in dissipation (ΔD) compared to other primers.

[10] = AFM height profiles of adsorbed primers; format: physicochemical
Procedure: Each primer solution (1 wt %) was prepared in methanol (for P1-P3) or DMSO (for P4). The primer solution was drop cast onto a freshly cleaved mica or glass surface, and kept at room temperature for 1 min. Subsequently, the surfaces were thoroughly rinsed with the respective solvents and dried with argon. All images, surface profiles and surfaces roughnesses were collected using an Asylum MFP-3D standard system (Asylum Research, Santa Barbara, CA) using silicon cantilevers (FORTGG-50, Applied NanoStructures, Santa Clara, CA) (FIGS. 48C and 49).

SMILES | lap shear strength σshear,max [1] [MPa] | lap shear strength σshear,max [2] [MPa] | lap shear strength σshear,max [3] | stability in water to oxidation (shelf life) [4] | cohesion energy Wc between SAMs ([5]; 5 mM in DI water, mica) [mJ/m^2] | hard-wall thickness ([5]; SAMs from 5 mM, mica) [nm] | SAM thickness on each mica surface ([5]; half of hard-wall) [nm] | contact angle θ of chlorobenzene droplet [6] [°] | saturation hole mobility μ ([7]; Au source and drain electrodes) [cm^2 V^−1 s^−1] | saturation hole mobility ([7]; Ni source and drain electrodes) [cm^2 V^−1 s^−1] | increase in adhesion vs plain mica (no primer) [8] [fold] | adhesion pressure Pad ([8]; n=5) [kPa] | thickness from QCM-D [9] [nm] | surface concentration of adsorbed layer ([9]; Sauerbrey, after rinsing) [ng/cm^2] | mass loss during rinsing ([9]; of initial mass) | adsorption seen by AFM ([10]; 1 wt.% solution, mica and glass) | AFM height ([10]; mica) [nm]
C=CC(=O)OCCC[Si](OC)(OC)OC [Silane, 3-trimethoxysilylpropyl acrylate, reference compound] | 0.9±0.4 | 3.8±1.1 | no increase in the lap shear strength |  |  |  |  |  |  |  |  |  |  |  |  |  | 
C[N+](C)(CCCc1cc(C(F)(F)F)cc(C(F)(F)F)c1)CCOP(=O)([O-])OCCCc1ccc(O)c(O)c1 [Z-Cat-Ben-F] |  |  |  | stable (shelf life) in water to oxidation | 3.3±1.0 | 2.6±0.4 | ~1.3 | < 10 | 26±5 | 46±4 |  |  |  |  |  |  | 
C=CC(=O)OCCCCCCCCOC(=O)CCc1ccc(O)c(O)c1 [P4, 8-((3-(3,4-dihydroxyphenyl)propanoyl)oxy)octyl acrylate] | 0.9±0.1 | 4.5±0.5 | 3.0±0.3 MPa |  |  |  |  |  |  |  | ~4 | 81.7±18.5 | ~3.1 | 345 | negligible | densely primed | ~3.5

From patent US12415939B2, “Nano-adhesive and surface primer compound and use thereof” (The Regents of the University of California, priority 2015, dated 2025)
